Where a name gives a salt, the structure may show the parent alone.
Tests used:
uptake of noradrenaline = assay: Effect on the uptake of noradrenaline in vivo (protection from 6-OHDA); set-up: species or system rat; conditions: for Concentration of noradrenaline in the brain X ± SEM: control 205 ± 10, 5
Description: The point of reference for measuring the inhibiting effect on the uptake of noradrenaline was the protection from the effect of 6-hydroxydopamine (6-OHDA), which was administered intraventricularly. Rats were applied intraventricularly 250 μg of 6-OHDA in the volume of 20 μl of 0,9% solution of […] and 0,1% solution of ascorbic acid. […] The animals were decapitated 7 days after and the level of noradrenaline in the whole brain was measured by the division on the Sephadex G-10 column and fluorimetric assay following oxidation.

rats behaviour = assay: Influence on the rats behaviour in "despair test" (Porsolt), immobility period; assay type: in vivo, rat; conditions: for The immobility period, % of control: twice
Description: 1) The influence on the rats behaviour in "despair test".
The rats were placed separately in upright, metallic cylindrical containers, 60 cm high and 18 cm in diameter, containing 15 centimeters of water, at a temperature of 25° C. […] After 24 hours the rats were dived in water again and for 5 minutes the complete immobility period was measured. The examined preparation (containing 5-morpholinomethyl-3-(4-chlorobenzylideneamine)-2-oxazolidinone hydrochloride) or imipramine (IMI) was administered per os twice: at 24 hours and one hour before the beginning of the observation.

uptake of serotonin [1] = conditions: 200 mg/kg before p-CA; control 353 ± 117, 7
[2] = system: mice premedicated with pargyline; assay: Intensification of L-dopa effects in mice premedicated with pargyline; assay type: in vivo, mouse; conditions: for Reaction of mice according to score: L-dopa 200 mg/kg i.p. after pargyline, control 1-2
Description: 3) The intensification of L-dopa effects in mice premedicated with pargyline.
Three hours after the oral administration of pargyline in the dosage of 40 mg/kg, there was applied orally either the examined preparation or IMI, followed after one hour by L-dopa administered intraperitoneally in the dosage of 200 mg/kg. The behaviour of the mice was evaluated according to the following 5-level score:
1 - piloerection, Straub's tail, exophtalmos of eyes, minute salivating, irritability.
2 - as above + translocations, single jumps.
3 - as above + bigger incitement of mobility, frequent jumps, climbing, single squeaks.
4 - as above + great incitement of mobility, aggresion, fights.
5 - as above + maximum incitement of mobility and aggresion

uptake of serotonin [3] = assay: Effect on the uptake of serotonin in vivo (protection from p-chloramphetamine)
[4] = system: reserpine pretreated mice; assay: Intensification of L-Dopa effects in reserpine pretreated mice; assay type: in vivo, mouse
Description: 2) The intensification of L-Dopa effects in reserpine pretreated mice.
The examined preparation was administered to mice p.o. in the dosages of 40 and 200 mg/kg 17 hours after reserpine in the dosage of 2,5 mg/kg had been administered intraperitoneally. After one hour L-dopa was injected in the dosage of 300 mg/kg. The intensification of L-dopa anti-reserpine action was evaluated according to the following parameters of the animals behaviour: mobility, irritability, ptosis and body temperature. According to the same empirical system IMI was examined in the dosages of 8 and 40 mg/kg.

[5] = system: process of learning and memorising; assay: Effect on the process of learning and memorising (conditioned jump on a bar); assay type: in vivo, rat
[6] = system: mice in the conditions of hypoxia; assay: Effect on the time of survival in the conditions of hypoxia; assay type: in vivo, mouse; conditions: for The number of mice surviving in the conditions of hypoxia: surviving/complete number
Description: The examined preparation was applied i.o. in the dosages 5, 10, 50, 75, 100 mg/kg 60 minutes before the beginning of the experiment. The experiment lasted until 0-3 animals survived in the control group. Subsequently oxygen was let in and finally normal air. The number of animals which survived in the control group was compared to the number of animals in the group administered the examined preparation. The number of surviving mice is presented in relation to the complete number of examined mice.

beta-adrenergic receptor = assay: Influence of chronic administration on concentration of beta-adrenergic cerebral receptors in vivo (3H-dihydroalprenolol bonding to cerebral cortex membranes); set-up: species or system rat
Description: Rats were administered the examined preparation in the form of intraperitoneally injection and the dosage of 200 mg/kg twice daily for six weeks. In the same empirical system IMI was examined in the dosage of 10 mg/kg. The animals were killed 24 hours after the last injection and their cerebral cortexes were skeletonized.
The population of the beta-adrenergic receptor was characterised by the examination of the parameters of the ^3 H-dihydroalprenolol (^3 H-DHA) bonding to the membranes (fractiom P2) of the cerebral cortex. The tissue was homogenised in 20 volumes of the 50 mM buffer TRIS-HCl, pH 7,6 in the Polytron disintegrator (position 4,155) and centrifuged at 1000 g for 10 minutes. The supernatant was decanted and again centrifuged at 25000 for 20 minutes. The operations were conducted in the temperature of 0°-4° C. The precipitate, after the second centrifugation, decanting and removing the supernatant, was kept in the temperature of -18° C. until the time of incubation (no longer than 48 hours). The final fraction P2 was obtained by the subsequent process of the sediment homogenisation in such a volume of 50 mM buffer TRIS-HCl, pH 7,6, that the final concentration of protein amounted to 1,5 mg/ml.
The incubation mixture, containing 450 μl of the fraction P2 suspension, 50 μl of the ^3 H-DHA solution (6 different solutions; the final concentrations in the mixture […]) and 50 μl of buffer or propranolol solution (the final concentration in the sample […]) was incubated for 30 minutes in the temperature of 25° C. The incubation was finished by filtrating the suspension through filters made of glass fibres. The filters were twice rinsed with 5 ml of cold (0° C.) buffer TRIS-HCl, pH 7,6, and placed in scintillation minivessels, to which Bray's liquid was added. The radioactivity was measured by the Packard scintillation counter, model B329 with the efficiency of 36-37%.
The specific bonding was defined as the radioactivity difference between the samples incubated in the absence of propranolol (complete bonding) and in the presence of 10 μM of propranolol (blank). The data from the counter […] were recalculated individually into the decay frequence […], calculating it from the individual efficiency of each sample, received from the relation of impulses in the canals A and B. Bmax value and the constant of dissociation KD was calculated from the Scatchard diagrams, which were rectilinear.

[7] = mice premedicated with pargyline
[8] = 100 mg/kg, controls: Examined 9/60 (p <0, 01), Piracetam 7/40 (n.d.), Pyritinol 8/60 (p <0, 01)
[9] = 200 mg/kg daily dosage, chronic
[10] = 10 mg/kg chronic administration, six weeks

In the case of `NCCc1cc(O)c(O)cc1O` [6-OHDA, 6-hydroxydopamine, reference compound], the “decline of the noradrenalin content in the cerebrum” value (uptake of noradrenaline; 6-OHDA administered intraventricularly) is reported as “over 50%” and the “noradrenaline, % in relation to the group after chemosympathectomy” value (“noradrenaline, % in relation” below) (uptake of noradrenaline; 6-OHDA alone (reference group), control 216) is reported as 100%.
`O=C1OC(CN2CCOCC2)CN1N=Cc1ccc(Cl)cc1` (centres unmarked) [Examined preparation, 5-morpholinomethyl-3-(4-chlorobenzylideneamine)-2-oxazolidinone hydrochloride] was tested, and the “The immobility period, % of control” value (rats behaviour; 40 mg/kg p.o.) was 89%, the “effect on immobility compared with IMI (20 mg/kg)” value (rats behaviour; 200 mg/kg) was “equals approximately to the effect of IMI (20 mg/kg)” and the “shortened the rats' immobility period in relation to the control group” value (rats behaviour; 200 mg/kg) was 18%. The “The immobility period, % of control” value (rats behaviour; 200 mg/kg p.o.) was 82%, the “Concentration of serotonin in the brain X ± SEM” value (uptake of serotonin [1]) was 367 ± 30, 1 mg/kg tissue and the “Reaction of mice according to score” value ([2]; 10 mg/kg p.o.) was 5. For the same molecule, the “Reaction of mice according to score” value ([2]; 20 mg/kg p.o.) was 5, the “Reaction of mice according to score” value ([2]; 40 mg/kg p.o.) was 5 and the “Reaction of mice according to score” value ([2]; 200 mg/kg p.o.) was 3-4. The “mobility and emotion incitement” value ([2]; after the dosages of 10, 20 and 40 mg/kg) was “strongest mobility and emotion incitement”, the “effectiveness compared with IMI” value [2, 7] was “stronger effectiveness than IMI” and the “intensification of L-dopa effects” value [2, 7] was “very strong intensification of L-dopa effects”. The “serotonin, % in relation to the group after p-chloramphetamine” value (“serotonin, % … after p-chloramphetamine” for short) (uptake of serotonin [3]; 40 mg/kg before p-CA) was 107%, the “serotonin, % … after p-chloramphetamine” value (uptake of serotonin [3]; 200 mg/kg before p-CA) was 172% and the “prevention of the p-chloramphetamine effect” value (uptake of serotonin [3]; high dosage) was “prevented the p-chloramphetamine effect completely”. The “effect on the washing-out action of p-chloramphetamine” value (uptake of serotonin [3]; low dosage) was “did not produce any effects on the washing-out action of p-chloramphetamine”, the “irritability and incitement, second phase” value ([4]; 200 mg/kg, after 90 minutes) was “there appeared irritability and big incitement, which lasted over an hour” and the “body posture (righting) reflex” value ([4]; 200 mg/kg, first hour after the application) was “loss of body posture (righting) reflex”. For the same molecule, the “effectiveness of smaller versus bigger dosage” value ([4]; 40 vs 200 mg/kg) was “A smaller dosage proved to be more effective than a bigger one”, the “effect on ptosis, hypothermy, mobility and irritability” value ([4]; reserpine pretreated mice + L-dopa) was “reduced ptosis and hypothermy and raised the animals' mobility and irritability” and the “intensification of the behavioural effects of L-dopa” value ([4]; reserpine pretreated mice, compared with IMI) was “intensified the behavioural effects of L-dopa action in reserpine pretreated mice in the same way as IMI”. For the same molecule, the process of learning ([5]; 5 mg/kg i.p. everyday) was “accelerates the process of learning”, the “effect on learning compared with piracetam and pyritinol” value ([5]; 5 mg/kg i.p. vs piracetam 100 mg/kg, pyritinol 100 mg/kg) was “weaker than the effect of piracetam, but stronger than the effect of pyritinol” and the “The number of mice surviving in the conditions of hypoxia” value (from here on “The number of mice surviving”) ([6]; 5 mg/kg, control 7/40, p n.d.) was 5/40. For the same molecule, the “The number of mice surviving” value ([6]; 10 mg/kg, control 5/40, p n.d.) was 6/40, the “The number of mice surviving” value ([6]; 50 mg/kg, control 9/60, p <0, 01) was 23/60 and the “The number of mice surviving” value ([6]; 75 mg/kg, control 9/60, p <0, 01) was 28/60. For the same molecule, the “The number of mice surviving” value [6, 8] was 47/60, the “time of mice survival in the conditions of hypoxia” value ([6]; in comparison to piracetam and pyritinol) was “prolongs the time of mice survival in the conditions of hypoxia” and the “noradrenaline, % in relation” value (uptake of noradrenaline; 40 (mg/kg) before 6-OHDA) was 92%. For the same molecule, the “noradrenaline, % in relation” value (uptake of noradrenaline; 200 (mg/kg) before 6-OHDA) was 155%, the “Concentration of noradrenaline in the brain X ± SEM” value (uptake of noradrenaline; 200 (mg/kg) before 6-OHDA) was 148 ± 24, 9 mg/kg tissue and the “inhibiting the uptake of noradrenaline” value (uptake of noradrenaline; high dosages) was “proves effective in inhibiting the uptake of noradrenaline”. For the same molecule, the “inhibition of the effect of 6-OHDA compared with IMI” value (uptake of noradrenaline; higher dosage) was “inhibits it almost as effectively as IMI”, the “prevention of the effect of 6-OHDA” value (uptake of noradrenaline; low dosage) was “does not prevent the effect of 6-OHDA completely” and the “Bmax, % of control” value (beta-adrenergic receptor; 40 mg/kg daily dosage, chronic) was 67%. For the same molecule, the “KD, % of control” value (beta-adrenergic receptor; 40 mg/kg daily dosage, chronic) was 63%, the “Bmax, % of control” value (beta-adrenergic receptor; [9]) was 72% and the “KD, % of control” value (beta-adrenergic receptor; [9]) was 68%. For the same molecule, the “effect on the concentration of receptors, compared with imipramine” value (beta-adrenergic receptor; both dosages, chronic) was “did not differ considerably” and the “constant of dissociation value KD / beta-adrenergic receptor affinity” value (beta-adrenergic receptor; both dosages, chronic, as distinct from imipramine) was “statistically considerable decline of the constant of dissociation value KD and consequently the increase of the beta-adrenergic receptor affinity”.
`CN(C)CCCN1c2ccccc2CCc2ccccc21` [IMI, imipramine, reference compound] was tested, and the “The immobility period, % of control” value (rats behaviour; 20 mg/kg p.o.) was 88%, the “Reaction of mice according to score” value ([2]; 4 mg/kg p.o.) was 4 and the “Reaction of mice according to score” value ([2]; 40 mg/kg p.o.) was 3-4. The “Temper. 60' (body temperature)” value ([4]; 8 mg/kg + L-Dopa 300 mg/kg after reserpine) was 34,3, the “noradrenaline, % in relation” value (uptake of noradrenaline; 20 mg/kg before 6-OHDA) was 188% and the “Concentration of noradrenaline in the brain X ± SEM” value (uptake of noradrenaline; 20 mg/kg before 6-OHDA) was 179 ± 113, 5 mg/kg tissue. The “Bmax, % of control” value (beta-adrenergic receptor; [10]) was 60% and the “KD, % of control” value (beta-adrenergic receptor; [10]) was 129%.
In the case of `NC(=O)CN1CCCC1=O` [Piracetam, piracetam, reference compound], the “The number of mice surviving” value [6, 8] is reported as 6/40 and the “The number of mice surviving” value ([6]; 300 mg/kg, control 6/60, p <0, 05) is reported as 18/60.
`Cc1ncc(CSSCc2cnc(C)c(O)c2CO)c(CO)c1O` [Pyritinol, pyritinol, reference compound] was tested, and the “The number of mice surviving” value [6, 8] was 30/60.
With `CC(N)Cc1ccc(Cl)cc1` (centres unmarked) [p-CA, p-chloramphetamine, reference compound] the “serotonin, % … after p-chloramphetamine” value (uptake of serotonin [3]; p-CA alone (reference group), control 169) was 100% and the “decline of the cerebral serotonine concentration” value (uptake of serotonin [3]; p-chloramphetamine alone) was 40%.

From patent publication US5643907A, “Pharmaceutical composition containing 5-morpholinomethyl-3-(4-chlorobenzylideneamine)-2-oxazolidinone and its use for the treatment of CNS disorders” (priority 1993, dated 1997)
